Source: patent US10059657B2, “Class-and isoform-specific HDAC inhibitors and uses thereof” (priority 2009, dated 2018)
Blank lines part the entries; values can stand above or below the molecule they belong to.

Assays:
[1] = target: T1, H976Y HDAC4 gain of function mutant (Homo sapiens, UniProt P56524, H976Y); conditions: H976Y mutant compared with HDAC4; cited from earlier work
T1 sequence (P56524 1-1084 H976Y): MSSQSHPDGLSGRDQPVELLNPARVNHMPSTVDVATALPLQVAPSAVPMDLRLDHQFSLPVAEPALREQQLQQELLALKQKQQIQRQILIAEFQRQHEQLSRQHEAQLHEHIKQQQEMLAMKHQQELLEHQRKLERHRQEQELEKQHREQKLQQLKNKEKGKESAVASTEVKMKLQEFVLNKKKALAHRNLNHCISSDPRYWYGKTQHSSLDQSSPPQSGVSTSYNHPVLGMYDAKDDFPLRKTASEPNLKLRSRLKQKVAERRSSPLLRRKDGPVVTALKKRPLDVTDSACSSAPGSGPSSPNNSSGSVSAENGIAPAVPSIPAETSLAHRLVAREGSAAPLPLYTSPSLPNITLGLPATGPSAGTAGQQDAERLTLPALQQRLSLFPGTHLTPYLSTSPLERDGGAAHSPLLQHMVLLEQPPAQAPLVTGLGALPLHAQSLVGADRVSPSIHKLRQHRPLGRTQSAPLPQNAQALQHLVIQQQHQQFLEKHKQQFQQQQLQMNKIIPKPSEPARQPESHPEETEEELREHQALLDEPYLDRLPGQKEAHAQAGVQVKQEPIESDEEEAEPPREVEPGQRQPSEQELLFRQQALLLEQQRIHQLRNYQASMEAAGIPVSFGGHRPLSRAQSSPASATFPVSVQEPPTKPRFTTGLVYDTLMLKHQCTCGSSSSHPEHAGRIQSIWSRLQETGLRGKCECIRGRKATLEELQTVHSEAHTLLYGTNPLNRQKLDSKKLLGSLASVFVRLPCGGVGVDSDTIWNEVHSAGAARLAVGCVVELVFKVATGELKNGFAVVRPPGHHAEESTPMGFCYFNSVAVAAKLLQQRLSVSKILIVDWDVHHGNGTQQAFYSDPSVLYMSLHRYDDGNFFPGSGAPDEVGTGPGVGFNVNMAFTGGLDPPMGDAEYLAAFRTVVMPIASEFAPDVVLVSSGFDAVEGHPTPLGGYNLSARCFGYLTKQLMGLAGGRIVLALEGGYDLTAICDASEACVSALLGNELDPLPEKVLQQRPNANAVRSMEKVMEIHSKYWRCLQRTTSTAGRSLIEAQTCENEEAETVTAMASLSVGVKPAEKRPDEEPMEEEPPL

HDAC1-9 = test: Biochemical HDAC assay, profiling against HDAC1-9; design: species or system human; conditions: dose-response, mean of three replicates
Method: The inhibitory effect of compounds on HDAC1-9 function was determined in vitro using an optimized homogenous assay performed in 384-well plate format. […] Reactions are performed in assay buffer (50 mM HEPES, 100 mM KCl, 0.001% Tween-20, 0.05% BSA, 200 μM TCEP, pH 7.4) and followed for fluorigenic release of 7-amino-4-methylcoumarin from substrate upon deacetylase and trypsin enzymatic activity. Fluorescence measurements are obtained approximately every five minutes using a multilabel plate reader and plate-stacker (Envision; Perkin-Elmer). Data are analyzed on a plate-by-plate basis for the linear range of fluorescence over time. The first derivative of data obtained from the plate capture corresponding to the mid-linear range is imported into analytical software and annotated with well identity and compound concentration (Spotfire DecisionSite). Replicate experimental data from incubations with inhibitor are normalized to control, solvent-only wells.
Data are analyzed by logistic regression with determination of IC50 and standard deviation (Spotfire DecisionSite and GraphPad Prism). Calculation of Ki is determined using a derivation of the standard formula Ki=[Inhibitor]/((VON;)*(1+S/Km))−[Substrate]/Km)−1. […]

Sirtuin2 = target: T2, Sirtuin2 (Homo sapiens, UniProt Q8IXJ6); test: Sirtuin activity assay, Sirtuin2; assay type: biochemical; conditions: highest testing concentration
T2 sequence (Q8IXJ6 1-389): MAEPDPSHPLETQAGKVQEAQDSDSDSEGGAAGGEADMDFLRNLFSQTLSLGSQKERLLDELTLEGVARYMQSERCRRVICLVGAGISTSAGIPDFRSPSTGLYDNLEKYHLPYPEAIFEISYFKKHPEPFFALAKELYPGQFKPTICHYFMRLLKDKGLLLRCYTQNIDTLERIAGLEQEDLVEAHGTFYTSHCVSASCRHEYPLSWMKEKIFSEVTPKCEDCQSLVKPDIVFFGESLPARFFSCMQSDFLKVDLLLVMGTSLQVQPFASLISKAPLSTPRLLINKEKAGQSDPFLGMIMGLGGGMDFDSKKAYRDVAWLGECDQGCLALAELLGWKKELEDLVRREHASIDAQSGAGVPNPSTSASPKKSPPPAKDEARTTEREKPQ
Method: (§1) A series of compound dilutions (10 fold higher than final concentrations) are made in 10% DMSO in HDAC assay buffer. 5 μl of each dilution is added to 50 μl of the reaction mixture so that the final concentration of DMSO is 1% in all of reactions.
(§2) All of the enzymatic reactions were conducted in duplicate at room temperature for 3 hours in a 50 μl mixture containing HDAC assay buffer, 5 μg BSA, 100 μM NAD^+, 10 μM HDAC substrate 1, a sirtuin enzyme, and the test compound.
(§3) After enzymatic reactions, 50 μl of 2×HDAC Developer was added to each well and the plate was incubated at room temperature for an additional 20 minutes. Fluorescence intensity was measured at an excitation of 360 nm and an emission of 460 nm using a BioTek Synergy™ 2 microplate reader.
(§4) Sirtuin activity assays were performed in duplicates at each concentration. The fluorescent intensity data were analyzed using the computer software, Graphpad Prism. […] The percent activity in the presence of each compound was calculated according to the following equation: % activity=(F−Fb)/(Ft−Fb), where F=the fluorescent intensity in the presence of the compound, Fb=the fluorescent intensity in the absence of the sirtuin, and Ft=the fluorescent intensity in the absence of the compound. […]
(§5) If the IC50 value is not available, the % inhibition of the compound at the highest testing concentration was calculated.

Sirtuin3 = target: T3, Sirtuin3 (Homo sapiens, UniProt Q9NTG7); test: Sirtuin activity assay, Sirtuin3; assay type: biochemical; conditions: highest testing concentration
T3 sequence (Q9NTG7 1-399): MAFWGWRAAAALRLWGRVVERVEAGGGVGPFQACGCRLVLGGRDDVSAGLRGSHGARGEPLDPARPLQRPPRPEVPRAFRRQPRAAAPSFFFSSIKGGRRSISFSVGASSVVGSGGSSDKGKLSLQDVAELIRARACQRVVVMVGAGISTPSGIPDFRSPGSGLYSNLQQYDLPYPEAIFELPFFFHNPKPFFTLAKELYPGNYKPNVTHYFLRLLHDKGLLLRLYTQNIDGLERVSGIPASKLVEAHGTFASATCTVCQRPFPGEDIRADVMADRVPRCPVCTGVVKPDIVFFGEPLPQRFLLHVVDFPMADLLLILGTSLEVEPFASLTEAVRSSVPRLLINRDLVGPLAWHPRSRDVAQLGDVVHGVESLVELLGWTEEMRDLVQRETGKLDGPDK
Method: as §1, §2, §3, §4, §5

Molecule: O=C(/C=C/c1ccc(CN(CCO)CCc2c[nH]c3ccccc23)cc1)NO [LAQ-824]
increased affinity for the H976Y HDAC4 gain of function mutant [1]: 100 fold

Molecule: O=C(CCCCCCC(=O)Nc1ccccc1)NO [SAHA]
inhibition of HDAC1-9, isoform selectivity profile (HDAC1-9): unexpected selectivity

inhibition at 100 µM (Sirtuin2): ~62%
inhibition at 100 µM (Sirtuin3): ~57%
Molecule: O=C(/C=C/c1ccc(C(=O)N/N=C/c2ccc(O)c(O)c2O)cc1)NO [pandacostat, (E)-N-hydroxy-3-(4-((E)-2-(2,3,4-trihydroxybenzylidene) hydrazinecarbonyl)phenyl) acrylamide]

Molecule: trichostatin A [TSA]
inhibition of HDAC1-9, isoform selectivity profile (HDAC1-9): unexpected selectivity
